According to patent US8859284B2, “Delivery of nanoparticles to neurons” (The United States of America, as represented by the …, priority 2009, dated 2014):
Like-named read-outs stand apart in the source and are kept apart here. Square brackets hold non-standard residues; d marks the D form. Ends that are not written are not given here. Peptide text beside a SMILES is read from it. * marks the point of attachment. Palmitoyl = CCCCCCCCCCCCCCCC(=O)*; Dap = NC[C@H](N)C(=O)O; Aib = CC(C)(N)C(=O)O

Columns and labels:
[1] = tested on: COS-1 and HEK 293T/17 cells; assay: Cellular delivery of QDs, result stated for both cell lines together; assay type: cell-based, African green monkey; Human; conditions: for intracellular distribution of QDs: both cell lines; for degree of endocytic uptake: compared with Palm-1, 72 h observation
Description: (§1) Merged images were generated using Adobe PhotoShop.

HEK 293T/17 cells [2] = assay: Cellular delivery of QDs, intracellular fate by fluorescence microscopy; conditions: for disruption of endosomes: with QD-CPP, 2-3 h, highest concentrations (500 mM sucrose or 500 μM chloroquine); for Quantum Dot Fate: summary of QD delivery strategies, some agents also tested in COS-1
Experimental: Human embryonic kidney (HEK 293T/17) and African green monkey kidney (COS-1) cell lines (ATCC, Manassas, Va.) were cultured in complete growth medium (Dulbecco's Modified Eagle's Medium (DMEM; purchased from ATCC)) supplemented with 1% (v/v) antibiotic/antimycotic and 10% (v/v) heat inactivated fetal bovine serum (ATCC). Cells were cultured in T-25 flasks and incubated at 37° C. under 5% CO2 atmosphere and a subculture was performed every 3-4 days (see reference 13).
The QD delivery experiments were performed on adherent cells seeded into the wells of Lab-Tek 8-well chambered #1 borosilicate coverglass (Nalge Nunc, Rochester, N.Y.) coated with 2 μg/mL fibronectin. For electroporation and nucleofection, adherent cells were harvested by trypsinization prior to performing QD delivery to cells in suspension. Cells were then seeded to chambered coverglass wells and imaged after cell attachment. The endosomal marker AlexaFluor647-transferrin was included as indicated in the text. For imaging, cells were washed with phosphate buffered saline (PBS, 137 mM NaCl, 10 mM phosphate, 3 mM KCl, pH 7.4), fixed with 3.7% paraformaldehyde in PBS and nuclei were stained with DAPI (Sigma) unless otherwise indicated.
For electroporation, cells were harvested by trypsinization and recovered for 1 hour in complete growth medium, pelleted, and resuspended in PBS. 510 nm DHLA-PEG QDs (0.5 μM final concentration) were mixed with 1×10^4 cells to a final volume of 100 μL in PBS in a 0.2 mm electroporation cuvette. The cuvette was subjected to 100 V for a 20 ms pulse using a GenePulser XCell electroporator (Bio-Rad, Hercules, Calif.). Cells were resuspended in complete growth medium, seeded into fibronectin-coated 8-well chambered coverglass, fixed and imaged after 24 hrs. For nucleofection delivery, 1×10^6 cells were harvested and resuspended in 100 μL of NUCLEOFECTOR reagent (Amaxa, Gaithersburg, Md.). 510 nm DHLA-PEG QDs were included at a final concentration of 0.4 μM. The cell/QD/reagent mixture was pulsed in the NUCLEOFECTOR using a preset protocol adapted for each specific cell line (20, 21). Cells were cultured and imaged as described for electroporation.
The INFLUX cell-loading reagent mediates the intracellular release of materials internalized via pinocytic vesicles by delivering the materials to cells in a hypertonic medium followed by the transfer of the cells to a hypotonic medium to induce vesicle disruption (see reference 22). 510 nm DHLA-PEG QDs were diluted to a final concentration of 300-800 nM in the supplied hypertonic delivery media according to manufacturer's instructions and incubated on the cells for 30 min at 37° C. The hypertonic medium was exchanged for hypotonic medium (serum-free culture medium diluted by 40% with deionized water) and incubated on the cells for 3 min. The cells were then recovered in complete growth medium for 30 min and cultured for various lengths of time prior to washing and fixation for imaging.
520 nm QDs with a 1:1 mixed surface of DHLA:DHLA-PEG were incubated with LIPOFECTAMINE 2000 for 20 min in serum free medium at a ratio of 1 μL LIPOFECTAMINE 2000 per 1.5 pmol QD. The complexes, at a final QD concentration of 75 nM, were incubated with the cells for 4 hours, removed and replaced with complete growth medium. The cells were then cultured for 24-36 h prior to washing and fixation.
PEI was incubated with 520 nm mixed surface DHLA:DHLA-PEG QDs in serum free medium at a ratio of 10 μg PEI per 1 pmol QD for 15 min. […] The complexes were then diluted into serum free media to a final QD concentration of 75-100 nM, incubated with cells for 2 h and removed. Cells were then cultured in complete media for 24-36 h, washed and fixed.
A stock solution of 520 nm DHLA:DHLA-PEG QDs (1 μM in 0.1 M borate buffer, pH 8.9) was diluted to 0.5 μM in HEPES (4-(2-hydroxyethyl)-1-piperazineethanesulfonic acid, pH 8.2).

HeLa cells = assay: QD uptake and endosomal escape in HeLa cells; assay type: cell-based; conditions: 163 HeLa cells, Palm-1 conjugated to a QD
Experimental: The Palm-1 peptide was also tested in HeLa cells, and found to be very effective in promoting endosomal escape.

HEK 293T/17 cells [3] = tested on: HEK 293T/17 cells
Experimental: Cellular toxicity was assessed using the CellTiter 96 Cell Proliferation Assay (Promega, Madison Wis.) according to the manufacturer's instructions. This assay is based upon the conversion of a tetrazolium substrate to a formazan product by viable cells at the assay end point (see reference 24). Cells (1×10^4 cells/well) were cultured in 96-well microtiter plates in complete growth medium in the presence of increasing concentrations of QDs, free peptide or polymer, or QDs in complex with peptide or polymer. In each case, the materials were incubated with the cells for the time required for efficient QD uptake. The materials were subsequently replaced with complete growth medium and the cells were cultured for 72 hours.

COS-1 cells = assay: Cellular uptake and endosomal escape of QD-peptide assemblies, fluorescence microscopy; assay type: cell-based, African green monkey; conditions: COS1 cells
Experimental: as §1
The peptide assemblies were incubated with COS-1 cells for 1 hr, removed, and the cells were subsequently cultured for 24 hr prior to fixation. An AlexaFluor 647-transferrin (Tf) conjugate was included during the incubation to label the vesicles of the endocytic pathway. Cell nuclei were stained with DAPI.

[4] = target: T1, Palmitoyl Protein Thioesterase 1 (PPT1) (Homo sapiens, UniProt P50897); conditions: competitive inhibitors; acidic environments; cited from earlier work
T1 sequence (P50897 28-306): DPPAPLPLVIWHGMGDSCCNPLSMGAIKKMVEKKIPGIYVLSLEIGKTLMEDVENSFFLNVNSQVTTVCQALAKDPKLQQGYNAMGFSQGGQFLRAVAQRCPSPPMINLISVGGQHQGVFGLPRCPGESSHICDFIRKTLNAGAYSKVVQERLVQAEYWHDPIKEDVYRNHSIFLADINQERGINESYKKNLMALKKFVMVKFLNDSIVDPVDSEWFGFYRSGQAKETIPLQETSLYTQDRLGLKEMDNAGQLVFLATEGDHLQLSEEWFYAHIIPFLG

HEK 293T/17 cells [5] = assay: FRET monitoring of intracellular stability of polyhistidine-QD association; assay type: cell-based, Human; conditions: over three days, no QDs present
Experimental: as §1
To investigate this issue, QD-peptide conjugates were prepared that engaged in FRET and their intracellular interactions were monitored over time. 510 nm DHLA-capped QDs were first assembled with an average of ˜2 Cy3-labeled His6-peptides and then the CPP was added to form the full conjugate (schematic in FIG. 3A). Due to the peptide's small size and proximity of the Cy3 acceptor to the nanocrystal surface, this valence results in a ca. 40% quenching of the QD PL by FRET. The resulting conjugates were delivered to HEK 293T/17 cells and the cells were cultured for three days. QD-donor and Cy3-acceptor FRET interactions over time within the cells were measured by exciting the QD and collecting side-by-side split fluorescence images using the DualView system and deconvoluting the subsequent intensity data. […] When the Cy3/QD emission ratio (normalized and corrected for direct Cy3-acceptor excitation) was calculated a gradual decrease was observed over time, culminating in a 36% decrease over three days (FIG. 3C). […] When Cy3 was delivered to the endosomes as a Cy3-labeled transferrin conjugate (no QDs present), the fluorescence output of the dye decreased approximately 34% over the same time period, in excellent agreement with the decrease observed in the above QD-CPP-Cy3-labeled peptide constructs (FIG. 3D). […]

HEK 293T/17 cells [6] = conditions: cited from earlier work

WGDapaVKIKKGLPAAGG(H)6 [Palm-3]
intracellular distribution of QDs [1]: remained completely sequestered within endosomes | degree of endocytic uptake [1]: significant reduction in the degree of endocytic uptake

CCN(CC)CCCC(C)Nc1ccnc2cc(Cl)ccc12 (centres unmarked) [chloroquine]
Toxicity (HEK 293T/17 cells [2]): significant cellular toxicity and morbidity | disruption of endosomes (HEK 293T/17 cells [2]): efficiently disrupted the endosomes

WGDapaVKIKK(P)9GG(H)6 [JB577]
QD uptake (HeLa cells): 90% | endosomal escape of the cells with uptake (HeLa cells): 86% | endosomal escape of the total (HeLa cells): 77% | Quantum Dot Fate (HEK 293T/17 cells [2]): Cytosolic, QDs dispersed | Toxicity (HEK 293T/17 cells [3]): minimally toxic | % Escape in cells with uptake (COS-1 cells; QD-peptide assemblies): 77% | Overall uptake/escape: uptake (COS-1 cells; first word of the cell): High | Overall uptake/escape: escape (COS-1 cells; second word of the cell): high

AcG(Pal)DapVKIKK
inhibition of palmitoyl thioesterase [4]: low micromolar affinity

Cy3-labeled transferrin conjugate: Cy3 delivered to endosomes as labeled transferrin, no QDs
decrease of fluorescence output of the Cy3 dye (HEK 293T/17 cells [5]): approximately 34%

GDap(Pal)VKIKK
inhibition of palmitoyl thioesterase [4]: low micromolar range

O=C(O)CCCc1ccc2ccc3cccc4ccc1c2c34 [pyrenebutyrate]
intracellular distribution of QDs (HEK 293T/17 cells [2]; HEK 293T/17, endosomal marker AlexaFluor 647-transferrin): no cytosolic dispersal was observed

WGDapaVKIKKGL(A)4GG(H)6 (WG[Dap](Palmitoyl)VKIKKGLAAAAGGHHHHHH) [Palm-2, No (Pro)9, short linker]
intracellular distribution of QDs [1]: remained completely sequestered within endosomes | degree of endocytic uptake [1]: significant reduction in the degree of endocytic uptake

OC[C@H]1O[C@@](CO)(O[C@H]2O[C@H](CO)[C@@H](O)[C@H](O)[C@H]2O)[C@@H](O)[C@@H]1O [sucrose]
Toxicity (HEK 293T/17 cells [2]): significant cellular toxicity and morbidity | disruption of endosomes (HEK 293T/17 cells [2]): efficiently disrupted the endosomes

CC(C)C[C@H](NC(=O)CNC(=O)[C@H](Cc1c[nH]c2ccccc12)NC(=O)[C@H](Cc1c[nH]cn1)NC(=O)[C@H](Cc1c[nH]cn1)NC(=O)[C@H](Cc1c[nH]cn1)NC(=O)[C@H](Cc1c[nH]cn1)NC(=O)[C@H](Cc1c[nH]cn1)NC(=O)[C@@H](N)Cc1c[nH]cn1)C(=O)N[C@@H](C)C(=O)NC(C)(C)C(=O)N[C@@H](CO)C(=O)NCC(=O)N1CCC[C@H]1C(=O)N[C@@H](CCCCN)C(=O)N[C@@H](CCCCN)C(=O)N[C@@H](CCCCN)C(=O)N[C@@H](CCCNC(=N)N)C(=O)N[C@@H](CCCCN)C(=O)N[C@H](C(=O)O)C(C)C [NLS peptide, reference compound] (H-HHHHHHWGLA[Aib]SGPKKKRKV-OH)
Toxicity (HEK 293T/17 cells [3]): minimally toxic

R9GGLA(Aib)SGWKH6 [CPP peptide]
Quantum Dot Fate (HEK 293T/17 cells [2]): Endosomal, QDs punctate | Toxicity (HEK 293T/17 cells [6]): minimally toxic
